Test results as given in patent publication EP0527889B1, “QUINOLIZINONE TYPE COMPOUNDS” (priority 1990, dated 1991).

Key:
Assay in all cases: In vitro antibacterial activity, MIC by agar dilution
Assay type in all cases: cell-based
Conditions in all cases: BHI agar, 35-37°C, 20-24 hours, unit assumed
[1] = test system: Acinetobacter calcoaceticus CMX 669
Procedure: (§1) Each plate was inoculated with 1:100 (or 1:10 for slow growing strains, primarily Micrococcus and Streptococcus) dilutions of up to 32 different microorganisms, using a Steers replicator block calibrated to deliver approximately 10^4 colony forming units (CFUs). The inoculated plates were incubated at from about 35°C to about 37°C for approximately 20-24 hours. In addition, a control plate using BHI agar containing no test compound was prepared and incubated at the beginning and at the end of each test. Ciprofloxacin was used as the control antibiotic.
(§2) The MIC was defined as the lowest concentration of test compound yielding no growth (a slight haze or sparsely isolated colonies at the inoculum spot) as compared to the growth control containing no test compound.

[2] = test system: Enterobacter aerogenes ATCC 13048
Procedure: as §1, §2

[3] = test system: Enterococcus faecium ATCC 8043
Procedure: as §1, §2

[4] = test system: Escherichia coli DC-2
Procedure: as §1, §2

[5] = test system: Escherichia coli JUHL
Procedure: as §1, §2

[6] = test system: Escherichia coli KNK 437
Procedure: as §1, §2

[7] = test system: Escherichia coli SS
Procedure: as §1, §2

[8] = test system: Klebsiella pneumoniae ATCC 8045
Procedure: as §1, §2

[9] = test system: Micrococcus luteus ATCC 4698
Procedure: as §1, §2

[10] = test system: Micrococcus luteus ATCC 9341
Procedure: as §1, §2

[11] = test system: Providencia stuartii CMX 640
Procedure: as §1, §2

[12] = test system: Pseudomonas aeruginosa A5007
Procedure: as §1, §2

[13] = test system: Pseudomonas aeruginosa BMH10
Procedure: as §1, §2

[14] = test system: Pseudomonas aeruginosa K799/61
Procedure: as §1, §2

[15] = test system: Pseudomonas aeruginosa K799/WT
Procedure: as §1, §2

[16] = test system: Pseudomonas cepacia 296I
Procedure: as §1, §2

[17] = test system: Staphylococcus aureus 642A
Procedure: as §1, §2

[18] = test system: Staphylococcus aureus A5177
Procedure: as §1, §2

[19] = test system: Staphylococcus aureus ATCC 6538P
Procedure: as §1, §2

[20] = test system: Staphylococcus aureus CMX 553
Procedure: as §1, §2

[21] = test system: Staphylococcus aureus NCTC 10649
Procedure: as §1, §2

[22] = test system: Staphylococcus epidermidis 3519
Procedure: as §1, §2

[23] = test system: Streptococcus agalactaciae CMX 508
Procedure: as §1, §2

[24] = test system: Streptococcus bovis A5169
Procedure: as §1, §2

[25] = test system: Streptococcus pyrogenes 2548 INDUC
Procedure: as §1, §2

[26] = test system: Streptococcus pyrogenes CONST
Procedure: as §1, §2

[27] = test system: Streptococcus pyrogenes EES61
Procedure: as §1, §2

[28] = test system: Escherichia coli H560
Procedure: as §1, §2

[29] = test system: Staphylococcus aureus 1775
Procedure: as §1, §2

[30] = test system: Staphylococcus aureus A-5278
Procedure: as §1, §2

Measured: MIC values

CN1CCN(c2nc3c(-c4ccc(F)cc4)cc(C(=O)O)c(=O)n3cc2F)CC1 [Example 1, 3-Fluoro-9-(4-fluorophenyl)-2-(4-methylpiperazin-1-yl)-6H-6-oxo-pyrido[1,2-a]pyrimidine-7-carboxylic acid]
0.39 µg/mL: [5] | [14] | [19] | [21]
50 µg/mL: [10]
6.2 µg/mL: [6] | [12] | [13] | [26] | [27]
0.2 µg/mL: [8]
25 µg/mL: [3] | [9] | [11] | [16] | [24]
12.5 µg/mL: [4] | [23]
< 0.05 µg/mL: [7]
3.1 µg/mL: [15] | [25]
not listed: [28] | [29] | [30]
0.78 µg/mL: all other assays above

CN1CCN(c2nc3c(-c4ccc(F)cc4)cc(C(=O)O)c(=O)n3cc2F)CC1 [Example 2, 3-Fluoro-9-(4-fluorophenyl)-2-(4-methylpiperazin-1-yl)-6H-6-oxo-pyrido[1,2-a]pyrimidine-7-carboxylic acid]
6.2 µg/mL: [6] | [12] | [13] | [26] | [27]
25 µg/mL: [3] | [9] | [11] | [16] | [29] | [24]
0.05 µg/mL: [7]
0.39 µg/mL: [28] | [5] | [14] | [19] | [21]
12.5 µg/mL: [4] | [23]
50 µg/mL: [10]
0.2 µg/mL: [8]
3.1 µg/mL: [15] | [25]
0.78 µg/mL: all other assays above

CCc1cc(C(=O)O)c(=O)n2ccc(N3CCC(N)C3)cc12.Cl (stereo not drawn) [Example 62, 8-(3-Amino-1-pyrrolidinyl)-1-ethyl-4H-quinolizin-4-one-3-carboxylic acid hydrochloride]
6.2 µg/mL: [12] | [13] | [15] | [17] | [21]
0.78 µg/mL: [1]
0.39 µg/mL: [7]
50 µg/mL: [3]
0.05 µg/mL: [14]
12.5 µg/mL: [9] | [18] | [20] | [22]
3.1 µg/mL: [2] | [28] | [5] | [8] | [16] | [19]
not listed: [29] | [30]
25 µg/mL: all other assays above

CCc1cc(C(=O)O)c(=O)n2ccc(N3CCNC(C)C3)cc12.Cl (stereo not drawn) [Example 64, 1-Ethyl-8-(3-methyl-1-piperazinyl)-4H-quinolizin-4-one-3-carboxylic acid hydrochloride]
6.2 µg/mL: [2] | [5] | [8] | [14]
1.56 µg/mL: [7]
25 µg/mL: [9] | [10] | [13] | [15] | [19] | [24]
> 100 µg/mL: [11]
12.5 µg/mL: [28]
100 µg/mL: [3] | [4] | [6] | [16]
not listed: [17] | [21] | [29] | [30]
50 µg/mL: all other assays above
